The supplement of paper PMC4862054

Columns and labels:
BT-549 = experiment: drug sensitivity score (DSS), CellTiter-Glo (DSS (AUC-based score)); higher = stronger drug effect (viability inhibition or cytotoxicity); extreme values may be limits of the assay; details: incubation time: 72 h
Summary of the method: (§1)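 The drug sensitivity score was computed from the area under the fitted dose-response curve. Breast cancer cell lines in 20 µl suspension went into 384-well plates holding compound at 5 concentrations (10-fold steps over a 10,000-fold, compound-specific range) for 72 h of incubation. CellTox Green fluorescence (485/520 nm) was read before CellTiter-Glo luminescence, the latter after 10 min at room temperature, and each plate was normalised to 0.1 % DMSO and a positive kill control.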

MCF-10A = experiment: as above; details: incubation time: 72 h
Summary of the method: as §1

HCC1143 = experiment: as above; details: incubation time: 72 h
Summary of the method: as §1

HDQ-P1 [1] = experiment: as above; details: incubation time: 72 h
Summary of the method: as §1

MDA-MB-453 = experiment: as above; details: incubation time: 72 h
Summary of the method: as §1

SK-BR-3 = experiment: as above; details: incubation time: 72 h
Summary of the method: as §1

CAL-148 [2] = experiment: as above; details: incubation time: 72 h
Summary of the method: as §1

CAL-85-1 [3] = experiment: as above; details: incubation time: 72 h
Summary of the method: as §1

CAL-120 = experiment: as above; details: incubation time: 72 h
Summary of the method: as §1

BT-474 = experiment: as above; details: incubation time: 72 h
Summary of the method: as §1

CAL-51 [4] = experiment: as above; details: incubation time: 72 h
Summary of the method: as §1

HCC1599 = experiment: as above; details: incubation time: 72 h
Summary of the method: as §1

MFM-223 = experiment: as above; details: incubation time: 72 h
Summary of the method: as §1

DU-4475 [5] = experiment: as above; details: incubation time: 72 h
Summary of the method: as §1

MDA-MB-436 = experiment: as above; details: incubation time: 72 h
Summary of the method: as §1

MDA-MB-468 = experiment: as above; details: incubation time: 72 h
Summary of the method: as §1

MDA-MB-231 = experiment: as above; details: incubation time: 72 h
Summary of the method: as §1

HCC1937 = experiment: as above; details: incubation time: 72 h
Summary of the method: as §1

Hs578T = experiment: as above; details: incubation time: 72 h
Summary of the method: as §1

HDQ-P1 [6] = experiment: normalised viability (% of control), CellTiter-Blue; higher = more viable cells (about 100 = DMSO control); details: incubation time: 72 h
Summary of the method: (§2)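 The reported figure is normalised viability at a single listed concentration of the series. Breast cancer cell lines (20 µl suspension) went onto 384-well plates holding compound in 5 µl medium for 72 h. CellTiter-Blue (2.5 µl, 2 h, 37 °C) was read by fluorescence at 560/590 nm, and each plate was scaled to vehicle at 100 and a positive kill control at 0.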

CAL-148 [7] = experiment: as above; details: incubation time: 72 h
Summary of the method: as §2

HDQ-P1 [8] = experiment: normalised viability (% of control), CellTiter-Blue; higher = more viable cells (about 100 = DMSO control); details: 1000 nM; incubation time: 72 h
Description: (§3)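 DSRT, CellTiter-Blue viability, 72 h incubation. Signal is normalised to DMSO and benzethonium chloride controls. Value is the normalised response at dose 7.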

CAL-148 [9] = experiment: as above; details: 1000 nM; incubation time: 72 h
Description: as §3

CAL-85-1 [10] = experiment: as above; details: 1000 nM; incubation time: 72 h
Description: as §3

CAL-51 [11] = experiment: as above; details: 1000 nM; incubation time: 72 h
Description: as §3

DU-4475 [12] = experiment: as above; details: 1000 nM; incubation time: 72 h
Description: as §3

Row | SMILES | drug sensitivity score (BT-549) | drug sensitivity score (MCF-10A) | drug sensitivity score (HCC1143) | drug sensitivity score (HDQ-P1 [1]) | drug sensitivity score (MDA-MB-453) | drug sensitivity score (SK-BR-3) | drug sensitivity score (CAL-148 [2]) | drug sensitivity score (CAL-85-1 [3]) | drug sensitivity score (CAL-120) | drug sensitivity score (BT-474) | drug sensitivity score (CAL-51 [4]) | drug sensitivity score (HCC1599) | drug sensitivity score (MFM-223) | drug sensitivity score (DU-4475 [5]) | drug sensitivity score (MDA-MB-436) | drug sensitivity score (MDA-MB-468) | drug sensitivity score (MDA-MB-231) | drug sensitivity score (HCC1937) | drug sensitivity score (Hs578T) | normalised viability (HDQ-P1 [6]; 3 nM) [%] | normalised viability (HDQ-P1 [6]; 30 nM) [%] | normalised viability (HDQ-P1 [6]; 100 nM) [%] | normalised viability (CAL-148 [7]; 3 nM) [%] | normalised viability (CAL-148 [7]; 30 nM) [%] | normalised viability (CAL-148 [7]; 100 nM) [%] | normalised viability (HDQ-P1 [8]) [%] | normalised viability (CAL-148 [9]) [%] | normalised viability (CAL-85-1 [10]) [%] | normalised viability (CAL-51 [11]) [%] | normalised viability (DU-4475 [12]) [%]
1 | C[C@H]1C[C@@H]2[C@H]([C@@H](O)C[C@@]3(C)[C@H]2CC[C@]3(O)C(=O)CO)[C@@]2(C)C=CC(=O)C=C12 [Methylprednisolone] | 0 | 0 | 0 | 1.31 | 0 | 0 | 0 | 0 | 6.14 | 0 | 0 | 0 | 0 | 0 | 0 | 0 | 0 | 0 | 0 | 108 | 103 | 122 | 88 | 99.4 | 102 | 109 | 108 | 97 | 102 | 104
2 | O=C(O)C(=O)O.[NH-][C@@H]1CCCC[C@H]1[NH-].[Pt+2] [Oxaliplatin] | 0 | 0 | 0 | 0 | 0 | 0 | 0 | 0 | 0 | 0 | 0 | 0 | 0 | 0 | 0 | 0 | 0 | 0 | 0 | 110 | 103 | 107 | 93 | 106 | 120 | 97.9 | 125 | 93.2 | 91.1 | 104
3 | Nc1nc2[nH]cc(CCc3ccc(C(=O)N[C@@H](CCC(=O)O)C(=O)O)cc3)c2c(=O)[nH]1 [Pemetrexed] | 0 | 0 | 0 | 2.5 | 0 | 11 | 0 | 13.4 | 1.52 | 9.78 | 13.7 | 0 | 0 | 0 | 5.36 | 1.37 | 6.23 | 8.27 | 23.6 | 110 | 100 | 101 | 95 | 105 | 106 | 94.8 | 115 | 72.3 | 102 | 93.9
4 | COc1cc([C@@H]2c3cc4c(cc3[C@@H](O[C@@H]3O[C@@H]5CO[C@@H](c6cccs6)O[C@H]5[C@H](O)[C@H]3O)[C@H]3COC(=O)[C@H]23)OCO4)cc(OC)c1O [Teniposide] | 16.1 | 0 | 12 | 4.15 | 0 | 20.3 | 15.7 | 10.3 | 6.56 | 11.7 | 12.1 | 19 | 7.72 | 19.4 | 16.8 | 13.5 | 8.09 | 6.71 | 7.63 | 113 | 113 | 104 | 103 | 69.3 | 61 | 82.3 | 30.3 | 64.6 | 24.4 | 5.16
5 | COc1cc2nccc(Oc3ccc(NC(=O)Nc4cc(C)on4)c(Cl)c3)c2cc1OC [Tivozanib] | 0 | 1.39 | 0 | 1.67 | 2.71 | 0 | 0 | 0 | 0 | 0 | 0 | 0 | 7.56 | 0 | 0 | 0 | 2.77 | 1.42 | 0 | 83.1 | 85.8 | 99.7 | 95 | 96.6 | 91.8 | 72.5 | 98.7 | 98.3 | 90.3 | 124
6 | CC1=C(/C=C/C(C)=C/C=C/C(C)=C/C(=O)O)C(C)(C)CCC1 [Tretinoin] | 0 | 4.05 | 0 | 0 | 2.34 | 7.99 | 2.48 | 0 | 0 | 0 | 0 | 0.765 | 0 | 0 | 0 | 2.13 | 1.34 | 0 | 1.26 | 120 | 122 | 107 | 81.6 | 89.9 | 87.8 | 109 | 81.2 | 82.2 | 93.2 | 102
7 | Oc1ncc(N(CCCl)CCCl)c(O)n1 [Uracil mustard] | 0 | 0 | 0 | 0 | 0 | 0 | 0 | 0 | 0 | 0 | 0 | 0 | 0 | 0 | 0 | 0 | 0 | 0 | 0 | 124 | 111 | 107 | 85.3 | 97.1 | 101 | 117 | 111 | 93.8 | 89.6 | 96.2
8 | CCCCC(=O)OCC(=O)[C@]1(O)Cc2c(O)c3c(c(O)c2[C@@H](O[C@H]2C[C@H](NC(=O)C(F)(F)F)[C@H](O)[C@H](C)O2)C1)C(=O)c1c(OC)cccc1C3=O [Valrubicin] | 9.05 | 8.72 | 8.06 | 5.59 | 2.44 | 12.4 | 13.8 | 4.91 | 0 | 3.82 | 16.8 | 2.29 | 1.28 | 11.5 | 9.03 | 11.1 | 3.05 | 4.28 | 5.56 | 96.2 | 97.4 | 84.7 | 90.9 | 72.9 | 60.1 | 58 | 2.49 | 61.3 | 23.1 | 2.39
9 | CCCS(=O)(=O)Nc1ccc(F)c(C(=O)c2c[nH]c3ncc(-c4ccc(Cl)cc4)cc23)c1F [Vemurafenib] | 0 | 0 | 0 | 0 | 0 | 0 | 0 | 0.555 | 0 | 0.633 | 2.75 | 0 | 0 | 14.1 | 0 | 0 | 0 | 0 | 0 | 92.9 | 105 | 106 | 95.2 | 97.3 | 98.3 | 90.5 | 93.9 | 83.8 | 93.2 | 25.6
